Data as given in patent publication US20110021621A1, “Drug for treating circulatory insufficiency” (ACTIVUS PHARMA CO., LTD., priority 2005, published 2011).
Where a name gives a salt, the structure may show the parent alone. Read-outs that look alike come from different tables or passages of the source.

Key:
[1] = tested on: bleeding time in male SD rats; conditions: rat, in vivo, po
Procedure: (§1) 5-week-old male SD rats (body weight is 138 to 152 g), 6 rats per one group, were used. […] 50 minutes after the administration, 50 mg/kg of pentobarbital sodium was intraperitoneally injected into the rat.
(§2) 10 minutes later, the tail was cut off at a position of 2 mm from the tip using a surgical blade, and was immediately immersed into a glass container (Magnus bath) filled with physiological saline maintained at approximately 37° C. to observe until the rat stopped bleeding.
(§3) The bleeding time was taken as the time from the tail cutting to the cessation of bleeding. The tail was marked at a position of 5 cm from the tip in advance, and was immersed in the physiological saline in the glass container at the depth of 5 cm from the surface. The maximum observation time was defined as 60 minutes after the tail cutting.

[2] = Bioabsorption: plasma concentration measurement in rats with oral administration; format: in vivo, rat; conditions: for concentration at 0.25 h: read-out: plasma concentration, Mean, time point 0.25 h; for concentration at 0.5 h: read-out: plasma concentration, Mean, time point 0.5 h; for concentration at 1 h: read-out: plasma concentration, Mean, time point 1.0 h; for concentration at 2 h: read-out: plasma concentration, Mean, time point 2.0 h; for concentration at 4 h: read-out: plasma concentration, Mean, time point 4.0 h; for concentration at 6 h: read-out: plasma concentration, Mean, time point 6.0 h; for concentration at 8 h: read-out: plasma concentration, Mean, time point 8.0 h; for AUC: read-out: AUC (area under the plasma concentration-time curve); for Cmax: read-out: Cmax (maximum plasma concentration); for Tmax: read-out: Tmax (time required to reach the maximum plasma concentration)
Procedure: We conducted a plasma concentration measurement in rats with oral administration to compare the absorption of the compound of the present invention (compound No. 451) with the comparative compound A and B.
6-week-old male SD rats (body weight is 200 to 230 g) were used for this test (3 rats per one group). The required amount of test compound was weighed and pulverized in an agate mortar. Then, a 0.5 (w/v) % methyl cellulose solution was added to prepare the suspension at the concentration of 10 mg/5 mL. 5 mL per kg body weight of the suspension was orally administered to rats once using a feeding tube for rats. About 0.3 mL of blood was sampled from the caudal vein using a heparinized glass tube at 0.25, 0.5, 1, 2, 4, 6, 8, 12 and 24 hours after the administration, and was centrifuged to obtain plasma.
30 μL of methanol and 300 µL of acetonitrile were added to 120 μL of the obtained plasma, and mixed with a Vortex mixer for 15 seconds. The sample was centrifuged to obtain 300 μL of the supernatant. The supernatant was dried, and 120 μL of an eluent was added thereto, and then mixed with a Vortex mixer for 15 seconds. After the mixture was centrifuged, the amount of each test compound remaining in the plasma was determined with liquid chromatography.
40 μL of the sample, as prepared above, was applied to liquid chromatography with the following conditions to conduct the measurement.
• Column: InertsiL (registered trademark) ODS-3 4.6 mmI.D.×250 mm; • Column temperature: 40° C.; • Eluent: Solution A (10 mmoL/L ammonium acetate:methanol=50:50), and Solution B (10 mmoL/L ammonium acetate:methanol=10:90); • Gradient condition (eluent composition): solution A→20 min.→solution B (5 min. elution)→1 min.→solution A (12 min. elution); • Flow rate: 1.0 mL; and • Detection wavelength: 314 nm.
• Column: InertsiL (registered trademark) ODS-3 4.6 mmI.D.×150 mm; • Column temperature: 40° C.; • Eluent: Solution A (aqua:methanol:acetic acid=90:10:0.5), and Solution B (aqua:methanol:acetic acid=10:90:0.5); • Gradient condition (eluent composition): solution A→20 min.→solution B (5 min. elution)→1 min.→solution A (12 min. elution); • Flow rate: 1.0 mL; and • Detection wavelength: 323 nm.
• Column: InertsiL (registered trademark) ODS-3 4.6 mmI.D.×150 mm; • Column temperature: 40° C.; • Eluent: Solution A (pH=2.2 phosphate buffer:acetonitrile=90:10), and Solution B (pH=2.2 phosphate buffer:acetonitrile=10:90); • Gradient condition (eluent composition): Solution A→10 min.→Solution B (2.5 min. elution)→0.5 min.→Solution A (9 min. elution); • Flow rate: 2.0 mL; and
Detection wavelength: 315nm.
Based on the peak area obtained in the liquid chromatography analysis with respect to 1 μg/mL of each test compound in plasma, the plasma concentration (μg/mL) at each time point was calculated.

[3] = Stability test in acidic or basic solution (half-life by liquid chromatography); format: physicochemical; conditions: time to 50% residual rate; for Half-life, pH 3.4 solution: phosphate buffer pH 3.4; for Half-life, pH 3.4 solution / Half-life, pH 7.3 solution: 1 mmoL/L, 37° C.; for Half-life, pH 7.3 solution: phosphate buffer pH 7.3
Procedure: The test compounds were dissolved in an acidic solution (phosphate buffer (pH3.4)) and in a basic solution (phosphate buffer (pH7.3)) at the concentration of 1 mmoL/L. Immediately after they were dissolved, each solution was analyzed with liquid chromatography using an acidic solution (phosphate buffer (pH3.4)) or basic solution (phosphate buffer (pH7.3)) as an eluent. The peak area of the test compounds was measured as the initial value. Furthermore, a time-course analysis with liquid chromatograpy was conducted to measure the peak area at each time point. The solution containing the test compound was kept in an incubator at 37° C. Based on the measured peak area of the test compounds, the percentage (%) of the peak area at each measurement time point was calculated, taking the peak area of the initial value as 100(%). The half-life (the time to show a 50% residual rate of the test compounds) of the test compounds was further calculated, and its stability was evaluated based on the half-life.

[4] = tested on: circulatory insufficiency model of rats induced by injection of lauric-acid into their femoral artery; test: Circulatory insufficiency model induced by lauric-acid in rats (lesion index); format: in vivo, rat; design: key: summed toe lesion grades, +5 if heel reached; max 25 points; conditions: male Wistar rats, average, max 25 points
Procedure: We performed this test in order to evaluate the pharmacological effect of the compounds of the present invention using a circulatory insufficiency model of rats induced by injection of lauric-acid into their femoral artery.
13-week-old male Wistar rats (body weight is 280 to 316 g), 8 rats per one group, were used. The rats were held in a supine position under anesthesia due to administration of 40 mg/kg of sodium pentobarbital by intraperitoneal injection. Then, the right femoral area was incised, thereby injecting 0.15 mL of 10 mg/mL lauric-acid solution into the femoral artery in order to induce lower limb gangrene caused by the peripheral vascular disorder. A few drops of instant adhesive (Aron-alpha; registered trademark) were used to stop bleeding, followed by topical application of antibiotics (potassium penicillin G solution) to prevent infection, and the incision site was then sutured.
The suspension was administered, by means of multiple oral dosing, 1 hour prior to and 3 hours after injection of lauric-acid and twice daily (at 10:00 and 17:00) for the following 9 days, at the dose of 30 mg/kg for each compound. […] The suspension was administered orally 3 hours prior to injection of lauric-acid at the dose of 300 mg/kg.
The extent of lesions was evaluated 3 days and 10 days after injection of lauric acid by the following criteria:
The lesion of each toe was graded and the total points of 5 toes were use as a lesion index, wherein 5 points were further added when the lesion reached the heel (i.e. the maximum lesion index was 25 points).
The shown number refers to the average value of the lesion index obtained from the evaluation.

[5] = tested on: bleeding time in male SD rats; test: Effect on bleeding time in rats (tail cutting); conditions: 30 mg/kg oral, max observation 60 min
Procedure: as §1, §2, §3

[6] = male, SD, rat, plasma, 10 mg/kg, 0.25 h
[7] = male, SD, rat, plasma, 10 mg/kg, 0.5 h
[8] = male, SD, rat, plasma, 10 mg/kg, 1.0 h
[9] = male, SD, rat, plasma, 10 mg/kg, 2.0 h
[10] = male, SD, rat, plasma, 10 mg/kg, 4.0 h
[11] = male, SD, rat, plasma, 10 mg/kg, 6.0 h
[12] = male, SD, rat, plasma, 10 mg/kg, 8.0 h
[13] = male, SD, rat, plasma, 10 mg/kg, from administration to 24 hours
[14] = male, SD, rat, plasma, 10 mg/kg
[15] = phosphate buffer pH 3.4, 37° C., read-out: Half-life, pH 3.4 solution (converted)
[16] = phosphate buffer pH 7.3, 37° C., read-out: Half-life, pH 7.3 solution (converted)
[17] = 30 mg/kg multiple oral dosing (1 h prior to and 3 h after lauric-acid, then twice daily for 9 days), 10 days after lauric-acid injection
[18] = 30 mg/kg multiple oral dosing (1 h prior to and 3 h after lauric-acid, then twice daily), 3 days after lauric-acid injection
[19] = 60 min between oral dosing and the tail cutting
[20] = 180 min between oral dosing and the tail cutting

CC#CCC(C)[C@H](O)/C=C/[C@@H]1[C@H]2c3cccc(CCCC(=O)O)c3O[C@H]2C[C@H]1O (mixture of isomers) [beraprost sodium]
Bleeding time ([1]; 1 mg/kg, 60 min): 42.2 min

O=c1oc2ccc(Cl)cc2c(O)c1O [B]
concentration at 0.25 h [2, 6]: 7400 ng/mL
concentration at 0.5 h [2, 7]: 4100 ng/mL
concentration at 1 h [2, 8]: 2000 ng/mL
concentration at 2 h [2, 9]: 1400 ng/mL
concentration at 4 h [2, 10]: 300 ng/mL
concentration at 6 h [2, 11]: 100 ng/mL
concentration at 8 h [2, 12]: 100 ng/mL
concentration at 12 h ([2]; male, SD, rat, plasma, 10 mg/kg, 12.0 h, read-out: plasma concentration, Mean, time point 12.0 h): 0 ng/mL
concentration at 24 h ([2]; male, SD, rat, plasma, 10 mg/kg, 24.0 h, read-out: plasma concentration, Mean, time point 24.0 h): 0 ng/mL
AUC [2, 13]: 8300 ± 2600 ng·h/mL
Cmax [2, 14]: 7400 ± 200 ng/mL
Tmax [2, 14]: 0.25 h
half-life at 1 mmoL/L [3, 15]: 53 h
half-life at 1 mmoL/L [3, 16]: 70 h

CCCCCCOc1c(O)c2ccc(O)cc2oc1=O [Compound 125]
Lesion Index after 10 days [4, 17]: 8.1
Lesion Index after 3 days [4, 18]: 2.6
Half-life, pH 3.4 solution [3]: >>100 hr
Half-life, pH 7.3 solution [3]: >>100 hr
Bleeding time [5, 19]: 8.0 min
Bleeding time [5, 20]: 8.4 min

CCOc1c(O)c2ccc(OC)cc2oc1=O [Compound 144]
Lesion Index after 10 days [4, 17]: 7.2
Lesion Index after 3 days [4, 18]: 2.5
Bleeding time [5, 19]: 8.9 min
Bleeding time [5, 20]: 8.2 min

CCCCCCOc1c(O)c2ccc(OCCO)cc2oc1=O [Compound 445]
Lesion Index after 10 days [4, 17]: 7.5
Lesion Index after 3 days [4, 18]: 2.7
Bleeding time [5, 19]: 9.1 min
Bleeding time [5, 20]: 8.3 min

CCCCCCCCOc1c(O)c2ccc(OCCO)cc2oc1=O [Compound 451]
Cmax (maximum plasma concentration) [2]: 25100 ± 13300 ng/mL
Tmax (time required to reach the maximum plasma concentration) [2]: 0.3 ± 0.1 h
plasma concentration, Mean, time point 0.25 h ([2]; 0.25 h): 23600 ng/mL
plasma concentration, Mean, time point 0.5 h ([2]; 0.5 h): 23600 ng/mL
plasma concentration, Mean, time point 1.0 h ([2]; 1.0 h): 17900 ng/mL
plasma concentration, Mean, time point 2.0 h ([2]; 2.0 h): 11800 ng/mL
plasma concentration, Mean, time point 4.0 h ([2]; 4.0 h): 9200 ng/mL
plasma concentration, Mean, time point 6.0 h ([2]; 6.0 h): 6800 ng/mL
plasma concentration, Mean, time point 8.0 h ([2]; 8.0 h): 3000 ng/mL
plasma concentration, Mean, time point 12.0 h ([2]; 12.0 h): 1200 ng/mL
plasma concentration, Mean, time point 24.0 h ([2]; 24.0 h): 500 ng/mL
AUC (area under the plasma concentration-time curve) ([2]; from administration to 24 hours): 99500 ± 64400 ng·h/mL
Lesion Index after 10 days [4, 17]: 7.2
Lesion Index after 3 days [4, 18]: 2.6
Half-life, pH 3.4 solution [3]: >>100 hr
Half-life, pH 7.3 solution [3]: >>100 hr
Bleeding time [5, 19]: 7.8 min
Bleeding time [5, 20]: 7.5 min

CCCCCCCCOc1c(O)c2ccc(OCCC(=O)O)cc2oc1=O [Compound 525]
Lesion Index after 10 days [4, 17]: 7.8
Lesion Index after 3 days [4, 18]: 2.9
Half-life, pH 3.4 solution [3]: >>100 hr
Half-life, pH 7.3 solution [3]: >>100 hr
Bleeding time [5, 19]: 8.5 min
Bleeding time [5, 20]: 8.1 min

CC(=O)Oc1ccccc1C(=O)O [aspirin]
Bleeding time ([1]; 100 mg/kg, 60 min): 40.2 min

O=C1CCc2cc(OCCCCc3nnnn3C3CCCCC3)ccc2N1 [cilostazol]
Bleeding time ([1]; 300 mg/kg, 60 min): 50.1 min

O=c1oc2ccccc2c(O)c1O [comparative compound A]
plasma concentration, Mean, time point 12.0 h ([2]; 12.0 h): Not detected
plasma concentration, Mean, time point 24.0 h ([2]; 24.0 h): Not detected
concentration at 0.25 h [2, 6]: 600 ng/mL
concentration at 0.5 h [2, 7]: 300 ng/mL
concentration at 1 h [2, 8]: 300 ng/mL
concentration at 2 h [2, 9]: 300 ng/mL
concentration at 4 h [2, 10]: 300 ng/mL
concentration at 6 h [2, 11]: 300 ng/mL
concentration at 8 h [2, 12]: 200 ng/mL
AUC [2, 13]: 2200 ± 100 ng·h/mL
Cmax [2, 14]: 600 ± 100 ng/mL
Tmax [2, 14]: 0.25 h
half-life at 1 mmoL/L [3, 15]: 30 h
half-life at 1 mmoL/L [3, 16]: 65 h

Clc1ccccc1CN1CCc2sccc2C1 [ticlopidine hydrochloride, reference compound]
Lesion Index after 3 days ([4]; positive control, 300 mg/kg orally 3 hours prior to lauric-acid injection, 3 days after injection): 2.8
Lesion Index after 10 days ([4]; positive control, 300 mg/kg orally 3 hours prior to lauric-acid injection, 10 days after injection): 7.4
Bleeding time ([1]; 300 mg/kg, 180 min): 36.1 min
